Experimental data: US7547678B2, “Method for treating a disease, disorder or adverse effect caused by an elevated serum concentration of an UGT1A1 substrate” (Abbott Laboratories, priority 2008, dated 2009)
Where “and” joins values, the source holds several entries; their conditions need not be identical. Equal values may be shown once.

What was measured:
[1] = Ethinylestradiol pharmacokinetics alone and with ritonavir in healthy female volunteers; format: in vivo, human
Description: This was an open-label, single-center study in healthy female volunteers who had not received an oral contraceptive for a minimum of six months prior to study start. Subjects received the first dose of oral contraceptive containing 50 μg of ethinyl estradiol on Day 1. […] On Day 15, 300 mg q12h was administered, 400 mg q12h was given on Day 16, and 500 mg q12h was administered thereafter. […] Blood samples for ethinylestradiol concentrations were collected for 48 h after each of the oral contraceptive doses.
Twenty-seven subjects were enrolled in the study. […] Data from these four subjects were therefore excluded from summary statistics. The mean ±SD age of the 23 subjects who completed the study was 34±10 yrs (range 19 to 45 yrs), the mean ±SD weight was 67.3±10.9 kg (range 50.8 to 90.3 kg), and the mean ±SD height was 167±7 cm (range 155 to 180 cm).
Ethinylestradiol was supplied as Demulen@ 1/50-21 tablets (G.D. Searle & Co.) containing 50 μg of ethinylestradiol and 1 mg of ethynodiol diacetate and was administered at 8:00 a.m. on Day 1 and Day 29 with approximately 240 mL of water and within 15 minutes of a meal or snack.
Subjects were confined for 64 hours from Day-1 (day prior to the initial dose) through the first 48 hour blood collection (morning of Day 3) and for 64 hours from Day 28 through the second 48 hour blood collection (morning of Day 31). In addition, subjects came to the clinical testing unit as outpatients for meals, dosing and other study activities twice daily for a total of 14 consecutive days, starting on Day 15. Strenuous activity during confinement was not permitted. During confinement, subjects abstained from all food and beverages except for the scheduled meals and snacks provided in the study. Water was available ad libitum. All meals were standardized with regard to content during confinement. Breakfast, lunch, and dinner were served at approximately 7:30 a.m., 1:00 p.m. and 7:30 p.m. and snacks were provided at approximately 10:00 p.m., except on Days-1 and 28 when the snack was served at 9:45 p.m. An 8 hour fast was required prior to all blood collections for clinical laboratory analyses. The sequence of starting breakfast and dinner on each dosing day during confinement was maintained to the minute such that the time intervals relative to dosing were the same among all subjects.
Blood samples (7 mL) were collected for serum ethinyl estradiol concentrations at the following times relative to the dose on Day 1 and Day 29: prior to (0 h) and at 0.5, 1, 2, 3, 4, 6, 8, 10, 12, 18, 24, 30, 36, and 48 h post-dose. […] All plasma and serum samples were packed with dry ice and shipped to the analytical sites.
Serum samples were analyzed for ethinylestradiol concentrations at Pharmaco LSR, Richmond, Va.
Analysis of serum samples for determination of ethinyl estradiol was performed at Pharmaco LSR, Richmond, Va. Ethinylestradiol serum concentrations were determined using a gas chromatography/mass spectrometry (GC/MS) method. 17α-ethinylestradiol and its corresponding isotopically labeled internal standard were isolated from human serum by buffering the serum to pH 8.6 and then extracting with an ethyl ether/methylene chloride mixture. The organic layer was exchanged into aqueous base, washed with hexane and then acidified and extracted with methylene chloride. […] This method has been validated over 17α-ethinylestradiol concentrations ranging from 2.00 to 256 pg/mL for a 1.0 mL serum volume, with a minimum quantitation limit of 2.00 pg/mL. […]

[2] = system: bilirubin-conjugating activity; conditions: indinavir treatment; cited from earlier work
[3] = system: UDP-glucuronosyltransferase 1A (UGT 1A); assay: Affymetrix Rat U34 microarray of liver RNA after oral ritonavir; format: in vivo, Sprague-Dawley rats
[4] = system: UGT1A1; assay: Hepatic 17α-ethinylestradiol glucuronidation activity in liver microsomes of treated rats; conditions: both male and female rats
[5] = system: bilirubin conjugation in human microsomes; conditions: in vitro system of human microsomes; cited from earlier work
[6] = target: T1, UGT1A1 isoform (Homo sapiens, UniProt P22309); conditions: human cells transfected with the UGT1A1 isoform; cited from earlier work
T1 sequence (P22309 26-533): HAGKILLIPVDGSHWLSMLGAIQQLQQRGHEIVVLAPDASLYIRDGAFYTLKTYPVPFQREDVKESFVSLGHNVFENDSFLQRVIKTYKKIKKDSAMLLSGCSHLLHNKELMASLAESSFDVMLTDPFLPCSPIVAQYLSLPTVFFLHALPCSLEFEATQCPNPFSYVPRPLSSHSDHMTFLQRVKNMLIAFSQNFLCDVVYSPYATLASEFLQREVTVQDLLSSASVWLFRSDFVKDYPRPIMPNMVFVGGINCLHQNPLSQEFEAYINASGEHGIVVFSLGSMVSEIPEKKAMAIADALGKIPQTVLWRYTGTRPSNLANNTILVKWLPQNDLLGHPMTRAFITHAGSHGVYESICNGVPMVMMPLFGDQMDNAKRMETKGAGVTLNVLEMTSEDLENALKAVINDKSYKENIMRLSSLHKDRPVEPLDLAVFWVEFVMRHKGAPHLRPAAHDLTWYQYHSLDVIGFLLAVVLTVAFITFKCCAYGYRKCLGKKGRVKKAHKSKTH

[7] = one study, subjects taking atazanavir; cited from earlier work
[8] = Mean ± SD, n = 23, single 50 μg ethinylestradiol dose, alone (Day 1) or on Day 29 during ritonavir 500 mg q12h, serum
[9] = 1-Day Studies, 20 mg/kg oral, liver RNA, 20 mg/kg
[10] = 1-Day Studies, 50 mg/kg oral, liver RNA, 50 mg/kg
[11] = 3-Day Studies, 50 mg/kg oral daily, liver RNA, 50 mg/kg

**Q.** Which “Ethinylestradiol AUC∞” value [1, 8] does the source give for `C#C[C@]1(O)CC[C@H]2[C@@H]3CCc4cc(O)ccc4[C@H]3CC[C@@]21C` [Ethinylestradiol, 17α-ethinylestradiol] here?
**A.** The value was 1670 ± 377 pg·h/mL.

**Q.** And the “Ethinylestradiol Cmax” value [1, 8]?
**A.** Its value is 104 ± 24 pg/mL.

**Q.** What about the “Ethinylestradiol Tmax” value [1, 8] of the same molecule?
**A.** The value was 4.0 ± 1.7 h.

**Q.** What about the “Ethinylestradiol β (terminal elimination rate constant)” value [1, 8] of the same molecule?
**A.** The value was 0.0407 ± 0.0082 h⁻¹.

**Q.** What about the “time at which serum ethinylestradiol concentrations peaked post-dose” value ([1]; single dose of oral contraceptive alone) of the same molecule?
**A.** The value was “approximately 4 h”.

**Q.** For `CC(C)(C)NC(=O)[C@@H]1CN(Cc2cccnc2)CCN1C[C@@H](O)C[C@@H](Cc1ccccc1)C(=O)N[C@H]1c2ccccc2C[C@H]1O` [Indinavir], which “cause of elevations in serum-unconjugated bilirubin (result in words)” value [2] is on record?
**A.** Its value is “direct inhibition of bilirubin-conjugating activity”.

**Q.** Which results are given for `CC(C)c1nc(CN(C)C(=O)N[C@H](C(=O)N[C@@H](Cc2ccccc2)C[C@H](O)[C@H](Cc2ccccc2)NC(=O)OCc2cncs2)C(C)C)cs1` [ritonavir, Ritonavir]?
**A.** Fold change, UDP-glucuronosyltransferase 1 family, member 1 (1st probe sequence) ([3]; 1-Day Studies, 20 mg/kg oral, liver RNA): 1.63; Fold change, 3-methylcholanthrene-inducible UDP-glucuronosyltransferase [3, 9]: 1.83 and 1.54; Fold change, UDP-glucuronosyltransferase 1 family, member 1 (2nd probe sequence) [3, 9]: 1.68 and 1.51; Fold change, UDP-glucuronosyltransferase 1 family, member 1 (3rd probe sequence) [3, 9]: 1.8 and 1.52; Fold change, UDP glucuronosyltransferase, exon 1. ([3]; 1-Day Studies, 50 mg/kg oral, liver RNA): 2.43; Fold change, 3-methylcholanthrene-inducible UDP-glucuronosyltransferase [3, 10]: 1.63 and 2.1; Fold change, UDP-glucuronosyltransferase 1 family, member 1 (1st probe sequence) [3, 10]: 1.68 and 1.63; Fold change, UDP-glucuronosyltransferase 1 family, member 1 (2nd probe sequence) [3, 10]: 2.12 and 2.05; Fold change, UDP-glucuronosyltransferase 1 family, member 1 (3rd probe sequence) [3, 10]: 1.75 and 2.12; Fold change, 3-methylcholanthrene-inducible UDP-glucuronosyltransferase [3, 11]: 1.54 and 1.85; Fold change, UDP-glucuronosyltransferase 1 family, member 1 (3rd probe sequence) [3, 11]: 1.31 and 1.33; UGT1A levels for all probe sets ([3]; dose levels of 100 mg/kg and higher, after 1 and 3 days of treatment): consistent increase; glucuronidation of 17α-ethinylestradiol, a UGT1A1 substrate (result in words) [4]: significantly increase

**Q.** Which results are given for `COC(=O)N[C@H](C(=O)N[C@@H](Cc1ccccc1)[C@@H](O)CN(Cc1ccc(-c2ccccn2)cc1)NC(=O)[C@@H](NC(=O)OC)C(C)(C)C)C(C)(C)C` [Atazanavir]?
**A.** inhibition of bilirubin conjugation (result in words) [5]: inhibits bilirubin conjugation in the micromolar range; inhibition of bilirubin conjugation (result in words) [6]: inhibits bilirubin conjugation in the micromolar range; subjects exhibiting unconjugated hyperbilirubinemia [7]: 57%
